Assay results: US10548933B2, “Method for preparing broccoli protein peptide mixture” (ZHEJIANG HISUN PHARMACEUTICAL CO., LTD., priority 2015, dated 2020)

Assay: DPPH free radical scavenging rate method (antioxidant capacity)
Assay type: biochemical
Conditions: 30 min, dark, 517 nm, average of three
Protocol: The antioxidant capacity was determined with the neutral protease and trypsin-digested peptide prepared in example 2, as well as the alkaline protease-digested peptide, the trypsin-digested peptide, the neutral protease-digested peptide, the papain-digested peptide and the pepsin-digested peptide prepared in example 3 used as samples, with soybean protein peptide and reduced glutathione used as controls (DPPH free radical scavenging rate method).
(1) DPPH (1,1-diphenyl-2-picrylhydrazyl) (25 mg) was weighed accurately, dissolved in absolute ethanol and the volume reached to 250 mL in a brown volumetric flask, DPPH solution with the concentration of 0.1 mg/mL was obtained and was kept in dark place to be supplied as standby.
(2) 1.0 mL sample solutions with different concentrations (100 mg/mL, 10 mg/mL, 1 mg/mL, 0.1 mg/mL) were taken, the solutions were placed in a 10 mL colorimetric tube respectively, 4.0 ml DPPH solution was added, the mixture was reacted at room temperature in a dark place for 30 minutes.
(3) The absorbance value was measured at 517 nm with the absolute ethanol as blank. The DPPH free radical scavenging rate was calculated according to the following formula. DPPH free radical scavenging rate (%)=[…] • In the formula. A0—the absorbance value of 1.0 mL distilled water+3.0 mL solution • As—the absorbance value of 1.0 mL sample solution+3.0 mL DPPH solution • Ac—the absorbance value of 1.0 mL sample solution+3.0 mL absolute ethanol.
The experiment was repeated for three times, the average value of the scavenging rate was obtained (if the solution was turbid, the measurement was taken after centrifugation).

## N[C@@H](CCC(=O)N[C@@H](CS)C(=O)NCC(=O)O)C(=O)O [Reduced glutathione (GSH), Reduced glutathione]
Sample concentration 0.1 mg/ml
  DPPH free radical scavenging rate: 30.8%
Sample concentration 1 mg/ml
  DPPH free radical scavenging rate: 72.1%
Sample concentration 10 mg/ml
  DPPH free radical scavenging rate: 90.9%
Sample concentration 100 mg/ml
  DPPH free radical scavenging rate: 95.9%
